Eleven compounds from patent US7354931B2, “Heterocyclic retinoid compounds” (Roche Palo Alto LLC, priority 2001, dated 2008) can be followed below.

One series concerns the target T1, RAR α (Homo sapiens, UniProt P10276).
T1 sequence (P10276 1-462): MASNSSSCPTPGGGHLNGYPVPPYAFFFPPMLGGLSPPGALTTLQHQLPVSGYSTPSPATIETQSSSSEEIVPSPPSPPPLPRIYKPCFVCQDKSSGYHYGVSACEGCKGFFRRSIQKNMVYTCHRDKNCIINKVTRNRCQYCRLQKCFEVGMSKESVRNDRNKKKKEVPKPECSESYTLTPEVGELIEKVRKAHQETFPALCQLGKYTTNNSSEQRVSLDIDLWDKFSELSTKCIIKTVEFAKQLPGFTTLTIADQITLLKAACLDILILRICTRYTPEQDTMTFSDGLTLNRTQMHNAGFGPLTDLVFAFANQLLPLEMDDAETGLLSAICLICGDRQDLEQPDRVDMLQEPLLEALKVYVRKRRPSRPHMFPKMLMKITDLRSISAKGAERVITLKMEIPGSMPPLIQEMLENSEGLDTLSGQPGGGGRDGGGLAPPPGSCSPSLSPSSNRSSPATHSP
In words: Ligand binding assay, retinoic acid receptor α. Particulars: first value of α/β/γ cell. The source says: (§1) The retinoic acid receptor agonist selectivity of a compound of the invention may be determined by using ligand binding assays known to the skilled artisan (Apfel et al., Proc. Natl. Acad. Sci., 1992, 89, 7129; Teng et al., J. Med. Chem., 1997, 40, 2445; Bryce et al., U.S. Pat. No. 5,807,900 which are herein incorporated by reference). Treatment with RAR agonists, particularly RAR γ agonists may promote repair of alveolar matrix and septation, which are in important in treating emphysema. It should be noted that RAR agonists that are not γ selective may be effective in treating emphysema
(§2) The retinoic acid receptor agonist selectivity of a compound of the invention may be determined by using ligand binding assays known to the skilled artisan (Apfel et al., Proc. Natl. Acad. Sci., 1992, 89, 7129; Teng et al., J. Med. Chem., 1997, 40, 2445; Bryce et al., U.S. Pat. No. 5,807,900 which are herein incorporated by reference). Treatment with RAR agonists, particularly RAR γ agonists may promote repair of alveolar matrix and septation, which are in important in treating emphysema It should be noted that RAR agonists that are not γ selective may be effective in treating emphysema.

A further series has as its target T2, RAR β (Homo sapiens, UniProt P10826).
T2 sequence (P10826 1-455): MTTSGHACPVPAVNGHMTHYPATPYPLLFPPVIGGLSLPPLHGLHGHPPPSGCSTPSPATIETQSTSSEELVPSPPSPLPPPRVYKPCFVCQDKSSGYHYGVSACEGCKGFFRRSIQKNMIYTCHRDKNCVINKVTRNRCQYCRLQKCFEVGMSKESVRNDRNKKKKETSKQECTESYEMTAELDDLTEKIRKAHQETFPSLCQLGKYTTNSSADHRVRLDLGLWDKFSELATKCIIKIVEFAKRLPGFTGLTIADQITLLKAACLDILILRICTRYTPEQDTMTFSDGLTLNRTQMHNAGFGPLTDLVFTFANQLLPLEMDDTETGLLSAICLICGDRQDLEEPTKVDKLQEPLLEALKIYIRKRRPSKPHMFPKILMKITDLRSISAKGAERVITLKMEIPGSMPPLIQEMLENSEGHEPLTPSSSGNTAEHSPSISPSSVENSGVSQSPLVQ
In words: Ligand binding assay, retinoic acid receptor β. Particulars: second value of α/β/γ cell.
Description: as §1, §2

A further series has as its target T3, RAR γ (Homo sapiens, UniProt P13631).
T3 sequence (P13631 1-454): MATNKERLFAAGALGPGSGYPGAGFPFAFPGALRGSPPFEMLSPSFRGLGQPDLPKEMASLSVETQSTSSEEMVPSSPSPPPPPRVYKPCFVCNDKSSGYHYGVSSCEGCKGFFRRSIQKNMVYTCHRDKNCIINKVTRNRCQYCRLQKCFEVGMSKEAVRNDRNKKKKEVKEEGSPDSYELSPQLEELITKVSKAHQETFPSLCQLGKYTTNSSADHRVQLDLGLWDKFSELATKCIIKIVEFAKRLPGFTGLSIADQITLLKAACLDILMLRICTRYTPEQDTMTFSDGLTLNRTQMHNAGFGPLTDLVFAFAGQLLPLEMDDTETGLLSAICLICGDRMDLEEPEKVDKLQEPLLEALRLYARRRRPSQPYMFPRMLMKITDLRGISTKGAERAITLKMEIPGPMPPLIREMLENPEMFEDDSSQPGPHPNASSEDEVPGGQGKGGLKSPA
In words: Ligand binding assay, retinoic acid receptor γ. Conditions: third value of α/β/γ cell.
Description: as §1, §2

Series [1] concerns rat model of elastase-induced emphysema. In words: Alveolar repair in rat model of elastase-induced emphysema. It is filed as in vivo, male Sprague Dawley rats. Conditions: once per day starting 21 days post elastase injury, relative to elastase+vehicle group. From the text:
Compounds of the invention may be evaluated for their effects on alveolar repair in the rat model of elastase-induced emphysema (Massaro et al., Nature, 1997, Vol. 3, No. 6: 675; Massaro et al., U.S. Pat. No. 5,998,486). Preferably, animals are divided into treatment groups of approximately eight. Lung inflammation and alveolar damage may be induced in male Sprague Dawley rats by a single instillation of about 2 U/gram body mass of pancreatic elastase (porcine derived, Calbiochem).
Animals may be treated with a compound of the invention formulated Miglyol at convenient oral dosage ranges (preferably, between about 10.0 mg/kg and 0.0001 mg/kg) and will be dosed orally once per day starting 21 days post injury. Control groups are challenged with elastase and 21 days later are treated with vehicle (Miglyol) for 14 days. Animals were sacrificed 24 hours after the last dose by exsanguination under deep anesthesia. Blood was collected at time of exsanguination for analysis.
The lungs are inflated with 10% neutral buffered formalin by intratracheal instillation at a constant rate (1 ml/gram body mass/min). The lung is excised and immersed in fixative for 24 hours prior to processing. Standard methods were used to prepare 5 μm paraffin sections. Sections were stained with Hematoxylin and Eosin. Alveolar measurements were made in four regions of the lung/rat by Computerized Morphometric analysis. The mean value/treatment group may be determined by summing the average area/rat for all eight rats/treatment groups and repair of elastase damage expressed as percentage of repair relative to the elastase+vehicle treated group from the following calculation: […]

As for `CCCCCC(COc1ccc(C(=O)O)cc1)c1ccc2c(c1)N(C)CCC2(C)C` (racemic) [Example 5.12, 4-[2-(1,4,4-trimethyl-1,2,3,4-tetrahydro-quinolin-7-yl)-heptyloxy]-benzoic acid], the IC50 (commonly the concentration needed to halve the response being measured) on RAR α stood at 3170 nM; on RAR β, 4150 nM; on RAR γ, 5440 nM.
In the same order, the values of `CCCCCC(COc1ccc(C(=O)O)cc1)c1ccc2c(c1)N(CC)CCC2(C)C` (racemic) [Example 5.13, 4-[2-(1-ethyl4,4-dimethyl-1,2,3,4-tetrahydro-quinolin-7-yl)-heptyloxy]-benzoic acid] are 2520 nM, 3130 nM and 3600 nM.
With `CCCCCC(/C=C/c1ccc(C(=O)O)cc1)c1ccc2c(c1)N(C)CCC2(C)C` (racemic) [Example 5.5, 4-[3-(1,4,4-trimethyl-1,2,3,4-tetrahydro-quinolin-7-yl)-oct-1-enyl]-benzoic acid], the IC50 on RAR α amounted to 1460 nM; on RAR β, 1940 nM; on RAR γ, 1420 nM. Moreover, the “% Alveolar repair” value worked out at 65% in series [1] (dose 1 μg/kg p.o.), 54% in series [1] (dose 10 μg/kg p.o.) and 60.9% in series [1] (dose 100 μg/kg p.o.).
Consider `CCCCCC(COc1ccc(C(=O)O)cc1)c1ccc2c(c1)SCCC2(C)C` (racemic) [Example 5.2, 4-[2-(4,4-dimethyl-thiochroman-7-yl)-heptyloxy]-benzoic acid], for which the melting point – broadly, the temperature of the solid-liquid transition – lay within 123 to 123.5 °C. Moreover, on RAR α, the IC50 turned out to be 2070 nM. This compound also yielded an IC50 on RAR β of 3010 nM. The compound also displayed an IC50 on RAR γ of 3230 nM.
Regarding `CCC(/C=C/c1ccc(C(=O)O)cc1)c1ccc2c(c1)N(C)CCC2(C)C` (racemic) [Example 5.7, 4-[3-(1,4,4-trimethyl-1,2,3,4-tetrahydro-quinolin-7-yl)-pent-1-enyl]-benzoic acid], the IC50 is 3390 nM at RAR α, 1050 nM on RAR β and more than 10000 nM on RAR γ.
In the same order, the values of `CCCCCC(/C=C/c1ccc(C(=O)O)cc1)c1ccc2c(c1)SCCC2(C)C` (racemic) [Example 5.4, 4-[3-(4,4-dimethyl-thiochroman-7-yl)-oct-1-enyl]-benzoic acid] are 1580 nM, 1490 nM and 2330 nM.
In the same order, the values of `CCCCCC(/C=C/c1ccc(C(=O)O)cc1)c1ccc2c(c1)OCCC2(C)C` (racemic) [Example 5.3, 4-[3-(4,4-dimethyl-chroman-7-yl)-oct-1-enyl]-benzoic acid] are 6920 nM, 2920 nM and 3870 nM.
Consider `CCCCCC(COc1ccc(C(=O)O)cc1)c1ccc2c(c1)OCCC2(C)C` (racemic) [Example 5.1, 4-[2-(4,4-dimethyl-chroman-7-yl)-heptyloxy]-benzoic acid], for which the melting point lay in the range of 91.5 to 93.3 °C. Moreover, at RAR α, the IC50 was found to be 3920 nM. On RAR β, this compound had an IC50 of 3160 nM. Further, the IC50 on RAR γ was determined as 3770 nM.
As to `CCCCCC(/C=C/c1ccc(C(=O)O)cc1F)c1ccc2c(c1)N(C)CCC2(C)C` (racemic) [Example 5.11, 3-fluoro-4-[3-(1,4,4-trimethyl-1,2,3,4-tetrahydro-quinolin-7-yl)-oct-1-enyl]-benzoic acid], the IC50 is 6290 nM at RAR α, 3260 nM at RAR β and 4060 nM on RAR γ.
In the same order, the values of `CCCCCC(/C=C/c1ccc(C(=O)O)cc1)c1ccc2c(c1)N(CC)CCC2(C)C` (racemic) [Example 5.6, 4-[3-(1-ethyl4,4-dimethyl-1,2,3,4-tetrahydro-quinolin-7-yl)-oct-1-enyl]-benzoic acid] are 1280 nM, 1470 nM and 1000 nM.
Take `CCCCCC(/C=C/c1ccc(C(=O)O)cc1)c1ccc2c(c1)NCCC2(C)C` (racemic) [Example 5.10, 4-[3-(4,4-dimethyl-1,2,3,4-tetrahydro-quinolin-7-yl)-oct-1-enyl]-benzoic acid]: the half-inhibitory concentration (IC50) on RAR α stood at 5140 nM; at RAR β, 8270 nM; on RAR γ it was 6390 nM.
